Holding throughout (format): in vivo
Series [1] has as its system Human Subjects. Put plainly: Subjective in-session self-evaluation at half-hour intervals (questionnaire and 3 item analog sleepiness scale). The settings on record: for Self-Perception of Sleepiness, score on sleepiness scale inventory: scale 0 to 10, higher numbers more sleepiness. The procedure: Immediately prior to “lights out”, subjects were asked to lie in a supine position. The MVA was positioned in the right nostril, with its nozzle directed toward the right VNO opening. Later, the MVA was positioned in the left nostril for stimulation of the left VNO. Two pulses of air or the test compound or placebo were administered to each VNO. The same procedure was repeated 30 minutes later, at which times the investigator would enter the room and wake the subject if they were asleep, so that the total dose of the vomeropherin being administered to each subject was 800 pg.
At each 30 minute sleep interruption, prior to the test compound application, each subject was given a short questionnaire to record their perception of whether they were asleep, estimated time spent awake, and number of awakenings. In addition, sleepiness was measured by a 3 item analog scale inventory (scored from 0 to 10, higher numbers indicating more sleepiness) that included: a) readiness to get back to sleep; b) degree of anxiety and c) self rated level of sleepiness. […] Recordings began at 10:00 p.m. and lasted until 6:00 a.m. of the following day. Frontal, parietal and occipital electroencephalograms (EEG), electrooculograms, and electromyograms were recorded during the first hour. These recordings were coded and scored blind for non-rapid eye movement sleep latency from “lights out” to the appearance of the first minute of Stage 1 sleep, total wake time, wake time after sleep onset, and total sleep time. Sleep stages were assigned according to the criteria of Rechtschaffen and Kales (1968). All variables were scored separately for each 30-minute interval. Number of awakenings was tallied for the entire hour of recording.

Series [2] relates to Human Subjects. Put plainly: Cognitive and motor performance tests before sleep and in the morning (maze, digit-symbol substitution, dot test, number repetition). The settings on record: night versus morning tests. From the text:
During the study, subjects spent one night in the sleep laboratory and underwent conventional polysomnography (PSG) only, during the first hour. The criteria for this short recording was based on previous findings showing that single dose VNO stimulation with the vomeropherins induced effects within one hour after stimulation. Before starting the recordings, each subject was questioned regarding distressing or extenuating events during that day that could contribute to sleep disruption. Times of last meal and physical exercise (if applicable) were also recorded. In order to determine whether the compound would affect daytime activities, or anterograde memory, judgment and motor skills were also evaluated both before going to sleep and in the morning. […]
In the morning, all subjects completed a multiple-choice questionnaire regarding the following variables: sleep latency after last entry, estimated time sleeping, number of awakenings, and quality of sleep. General status at waking time was determined by marking on a 9 item analog scale inventory. […]

Series [3] deals with Human Subjects. Put plainly: Sleep study by polysomnography (PSG) after VNO stimulation, randomized single-blind placebo-controlled. The settings on record: for Overall effect on sleep and arousal: conclusion from PSG and self-reports. The procedure:
Three methods were used to assess sleep: 1) sleep study, 2) quantitative electroencephalography, and 3) psychometric tests. The study was carried out using a randomized, single-blind, placebo-controlled experimental design.
Screening was performed several days prior to the study session via clinical interviews and examination. Additionally, Hamilton A and D, and Covy tests were administered to determine concomitant anxiety or affective disorders. A thorough questionnaire regarding sleep habits and sleep pathologies was also administered to each subject. Criteria for inclusion in the study included subjects with a score of 12 or less on the Covy test and a score of 8 or less on the Hamilton A and Hamilton D tests, and absence of any medical or psychiatric conditions. Ten physically and mentally healthy young male adult subjects were selected for the study. All of them Were normal sleepers (i.e., they reported no difficulty in falling or remaining asleep at night, slept between 6 and 8.5 hours per night, and were alert during the daytime).
On the day of the study, they were instructed to refrain from napping, to avoid consuming alcohol or caffeine containing beverages, and to maintain a uniform daily level of activity. The ten subjects were divided into two groups of five, with the test compound being administered to one group and the other acting as a control.
The test compound was administered to the VNO using a manual vomeronasal applicator (MVA). This applicator comprises an air supply, delivering a 1 ml pulse of air; a valve system passing that pulse of air either through a chamber containing 30 mg of USP cotton that has been previously soaked with 1 ml of a 1 mg/ml solution of the test compound, estra-1,3,5(10),16-tetraen-3-yl acetate, in ethanol and allowed to dry overnight, or bypassing that chamber; a one-way flow valve; and a nozzle capable of being positioned in a nostril to provide direct administration to the lumen of the VNO. With a 1 ml air pulse, the MVA delivers 200 pg of the test compound to the VNO.
During the study, subjects spent one night in the sleep laboratory and underwent conventional polysomnography (PSG) only, during the first hour. The criteria for this short recording was based on previous findings showing that single dose VNO stimulation with the vomeropherins induced effects within one hour after stimulation. Before starting the recordings, each subject was questioned regarding distressing or extenuating events during that day that could contribute to sleep disruption. Times of last meal and physical exercise (if applicable) were also recorded. In order to determine whether the compound would affect daytime activities, or anterograde memory, judgment and motor skills were also evaluated both before going to sleep and in the morning. For this purpose, subjects were administered a maze test, a digit-symbol substitution test, a right and left manual coordination test (dot test), and a number repetition test as described in a previous publication (Monti, J. M., 1989, Slow Wave Sleep in Health and Disease. In: Waukier A., Dugovic C. and Radulovacki M. “Slow Wave Sleep.” New York, Raven Press. pp. […]).
Immediately prior to “lights out”, subjects were asked to lie in a supine position. The MVA was positioned in the right nostril, with its nozzle directed toward the right VNO opening. Later, the MVA was positioned in the left nostril for stimulation of the left VNO. […]

Series [4] concerns Human Subjects. Put plainly: Morning multiple-choice questionnaire and analog scale (sleep latency, duration, quality, status at waking). The procedure: In the morning, all subjects completed a multiple-choice questionnaire regarding the following variables: sleep latency after last entry, estimated time sleeping, number of awakenings, and quality of sleep. General status at waking time was determined by marking on a 9 item analog scale inventory. In addition, all subjects were administered cognitive and motor performance tests identical to those received before bedtime.

Where [5] appears, read: morning questionnaire, latency after last entry, 5 subjects per group.
[6] abbreviates: morning questionnaire, 5 subjects per group.

With `CC(=O)Oc1ccc2c(c1)CC[C@@H]1[C@@H]2CC[C@]2(C)C=CC[C@@H]12` [Test Compound, estra-1,3,5(10),16-tetraen-3-yl acetate], the “Self-Perception of Sleepiness, score on sleepiness scale inventory” value with Human Subjects [1] (First entry (beginning study), placebo 7.5) is reported as 6.0. For the same compound, the “Self-Perception of Sleepiness, score on sleepiness scale inventory” value in the series on Human Subjects [1] (Second entry (60 min. int), after dosing, placebo 8.9) is 3.2. In the series on Human Subjects [1] (self-evaluation at half-hour intervals, control group none to more than three), the “Self-reported number of awakenings” value is “three or more”. Further, the “Effect on subject's self-perception of sleep” value in the series with Human Subjects [1] (self-reports compared with PSG data) is given as “does not impair a subject's self-perception of sleep”. Also, in the series with Human Subjects [2], the “Change in scores for anterograde memory, judgment or motor dexterity” value was “Neither the control nor the test group revealed any changes in scores”. Also, the “Overall effect on sleep and arousal” value in the series on Human Subjects [3] is listed as “possible psychostimulant effect”. Also, in the series on Human Subjects [3] (listed as estra-1,3,5(10),16-tetraen-3-yl acetate), the “Overall effect on sleep and arousal” value is given as “primary arousing effect”. Moreover, the “Sleep Onset Latency (SOL), Mean” value with Human Subjects [3] (healthy young male adults, 5 per group, test compound to VNO by MVA, total 800 pg, first hour PSG, control group 16) stood at 21 min. For the same compound, the “Wake Time after Sleep Onset, Mean” value in the series on Human Subjects [3] (healthy young male adults, 5 per group, test compound to VNO by MVA, total 800 pg, first hour PSG, control group 17.7) stood at 16.3 min. In the series on Human Subjects [3] (healthy young male adults, 5 per group, test compound to VNO by MVA, total 800 pg, first hour PSG, control group 26.0), the “Total Sleep Time (TST), Mean” value is 14.3 min. In addition, the “Sleep quality (disturbed or undisturbed)” value in the series with Human Subjects [4] (classified by subjects in the morning) is reported as “one subject in the test group defined their sleep as “disturbed””. Moreover, in the series with Human Subjects [4] (setting [5]), the “Sleep Latencies <30 Minutes, number of subjects” value is given as 0 n and the “Sleep Latencies >30 minutes, number of subjects” value came to 5 n. Also, in the series on Human Subjects [4] (setting [6]), the “Sleep Duration 4-6 hours, number of subjects” value came out at 5 and the “Sleep Duration 7-8 hours, number of subjects” value was determined as 0. Moreover, the “Reported sleep latency after VNO stimulation” value in the series on Human Subjects [4] (morning quiz, control group shorter than 30 minutes) was over 30 min. Further, the “Condition at morning waking (index and visual analog scale)” value in the series with Human Subjects [4] (versus placebo) was “did not show any difference”.
